System: Pistacia atlantica x P. intergerrina plants
Assay: In vitro initiation and multiplication of pistachio on solid medium
Assay type: cell-based
Procedure: Fully developed pistachio plants were cut into single-node explants, shoot tips, basal (bottom) parts of plants with multiple buds, and cultured on different agar-solidified culture media under standard tissue culture conditions (16 h light photoperiod, cool white fluorescent lights at 80-100 μmol/m^2/s light intensity, 24° C.).
Culture vessels (baby food jars) with ventilated lids are used in all experiments: 1-3 explants per 1 vessel, 12 vessels per each experimental medium, 40 ml of medium in each vessel. The explants are subcultured every 30 days, photographed every week, and observed daily.
The culture media differed in composition of major macronutrients (e.g., MS vs. WPM vs. DKW), individual elements (calcium, magnesium, phosphorus, zinc copper, boron, etc.), as well as in type and concentration of plant growth regulators (PGRs).
The compositions of these media are presented in FIG. 38, and their key advantages are based on data presented below.
Because the type and dosage of PGRs are usually the key factors controlling the morphogenetic response of plant cells in vitro, the main work was focused on testing various concentrations of cytokinins or cytokinin-like compounds (TDZ, 2iP, BA, meta-Topolin, ZR), alone or in combination with auxins (NAA, IAA, IBA), to induce organogenesis and high frequency multiplication in Pistacia atlantica x P. intergerrina. In the absence of PGRs (i.e., on hormone-free media), the plant growth was very poor and the culture gradually died within several weeks. In contrast, the culture media with 1-3 mg/l meta-Topolin, alone or in combination with 0.02-1 mg/l NAA or IBA, provided the highest rate of shoot organogenesis with the fastest response: each explant formed multiple meristematic buds, and the first axillary shoots appeared as early as 3 days after the explants were placed on the media. […] The multiplication rate of pistachio plants cultured on BOO3, BOO6, BOO4, and BOO7 media was 2-7 times every 30 days. […]

[1] = 1-3 mg/l meta-Topolin, alone or in combination with 0.02-1 mg/l NAA or IBA

C=C1C[C@]23C[C@@]1(O)CC[C@H]2[C@@]12C=C[C@H](O)[C@@](C)(C(=O)O1)[C@H]2[C@@H]3C(=O)O [GA3, gibberellic acid]
shoot development from dormant buds of plant bases (2 mg/l of GA3 added into the media): induced shoot development

Oc1cccc(CNc2ncnc3[nH]cnc23)c1 [meta-Topolin, 6-(3-hydroxybenzylamino)-purine]
first axillary shoots appeared after the explants were placed on the media [1]: ≥ 3 days | rate of shoot organogenesis [1]: highest
